Assay results taken from patent US20260200939A1, “MOLECULAR GLUE DEGRADER COMPOUNDS AND USES THEREOF” (Novartis AG, priority 2022, published 2026).

Legend:
BRD4 long = molecular target: T1, BRD4 long (Homo sapiens, UniProt O60885); experiment: BRD4 (long) degradation assay, Western blotting; type: cell-based
T1 construct: endogenous in cells; host or cells: HEK293T
Protocol: (§1) C33A cells were purchased from American Type Culture Collection (ATCC) and were cultured in Dulbecco's Modified Eagle Medium (DMEM) containing 10% (v/v) fetal bovine serum (FBS) and maintained at 37° C. with 5% CO2. 22RV1 cells were purchased from the ATCC and were cultured in RPMI-1640 Medium containing 10% (v/v) FBS and maintained at 37° C. with 5% CO2. HEK293T cells were obtained from the UC Berkeley Cell Culture Facility and were cultured in DMEM containing 10% (v/v) FBS and maintained at 37° C. with 5% CO2. K562 cells were obtained from the UC Berkeley Cell Culture Facility and were cultured in Iscove's Modified Dulbecco's Medium (IMDM) containing 10% (v/v) FBS and maintained at 37° C. with 5% CO2. MV-4-11 cells were obtained from the ATCC and were cultured in IMDM containing 10% (v/v) FBS and maintained at 37° C. with 5% CO2. A549 cells were obtained from the ATCC and were cultured in F-12K Medium containing 10% (v/v) FBS and maintained at 37° C. with 5% CO2. Mino cells were obtained from the ATCC and were cultured in RPMI-1640 Medium containing 10% (v/v) FBS and maintained at 37° C. with 5% CO2. LNCaP cells were obtained from the ATCC and were cultured in RPMI-1640 Medium containing 10% (v/v) FBS and maintained at 37° C. with 5% CO2. Unless otherwise specified, all cell culture materials were purchased from Gibco. It is not known whether HEK293T cells are from male or female origin.
(§2) Cells were washed twice with cold PBS, scraped, and pelleted by centrifugation (700 g, 5 min, 4° C.). Pellets were resuspended in PBS, sonicated, clarified by centrifugation (12,000 g, 10 min, 4° C.), and lysate was transferred to new low-adhesion microcentrifuge tubes. Proteome concentrations were determined using BCA assay and lysate was diluted to appropriate working concentrations.
(§3) Proteins were resolved by SDS/PAGE and transferred to nitrocellulose membranes using the Trans-Blot Turbo transfer system (Bio-Rad). Membranes were blocked with 5% BSA in Tris-buffered saline containing Tween 20 (TBS-T) solution for 30 min at RT, washed in TBS-T, and probed with primary antibody diluted in recommended diluent per manufacturer overnight at 4° C. After 3 washes with TBS-T, the membranes were incubated in the dark with IR680- or IR800-conjugated secondary antibodies at 1:10,000 dilution in 5% BSA in TBS-T at RT for 1 h. After 3 additional washes with TBST, blots were visualized using an Odyssey Li-Cor fluorescent scanner. The membranes were stripped using ReBlot Plus Strong Antibody Stripping Solution (EMD Millipore) when additional primary antibody incubations were performed. Antibodies used in this study were CDK4 (Abcam ab108357), Vinculin (Abcam ab129002), GAPDH (Cell Signaling Technology 14C10), RNF126 (Santa Cruz Biotechnology sc-376005), BRD4 (Abcam ab128874), Beta Actin (Cell Signaling Technology 13E5), PDE5 (Abcam ab259945), AR-V7 (Abcam ab273500), c-Abl (Santa Cruz Biotechnology sc-23), SMARCA2 (Abcam ab240648), LRRK2 (Abcam ab133474), BTK (Cell Signaling Technology D3H5), Androgen Receptor (Abcam ab133273).

BRD4 short = molecular target: T2, BRD4 short (Homo sapiens, UniProt O60885); experiment: BRD4 (short) degradation assay, Western blotting; type: cell-based
T2 construct: endogenous in cells; host or cells: HEK293T
Protocol: as §1, §2, §3

[1] = first value of cell (long/short)
[2] = second value of cell (long/short)
[3] = first value of cell, range with lower bound in nM and upper bound in μM
[4] = second value of cell, range with lower bound in nM and upper bound in μM

SMILES	DC50 (BRD4 long; [1]) [nM]	DC50 (BRD4 short; [2]) [nM]	DC50 (BRD4 long; [3]) [nM]	DC50 (BRD4 short; [4]) [nM]
Cc1sc2c(c1C)C(c1ccc(Cl)cc1)=N[C@@H](CC(=O)N[C@H]1C[C@H](NC(=O)/C=C/C(=O)c3ccc4c(c3)CCO4)C1)c1nnc(C)n1-2 [Compound 211, (E)-N-((1S,3r)-3-(2-((S)-4-(4-chlorophenyl)-2,3,9-trimethyl-6H-thieno[3,2-f][1,2,4]triazolo[4,3-a][1,4]diazepin-6-yl)acetamido)cyclobutyl)-4-(2,3-dihydrobenzofuran-5-yl)-4-oxobut-2-enamide]	10 to 100	10 to 100		
COc1ccc(C(=O)/C=C/C(=O)N2C[C@H]3CN(C(=O)C[C@@H]4N=C(c5ccc(Cl)cc5)c5c(sc(C)c5C)-n5c(C)nnc54)[C@H]3C2)cc1 [Compound 212, (E)-1-((1S,5R)-6-(2-((S)-4-(4-chlorophenyl)-2,3,9-trimethyl-6H-thieno[3,2-f][1,2,4]triazolo[4,3-a][1,4]diazepin-6-yl)acetyl)-3,6-diazabicyclo[3.2.0]heptan-3-yl)-4-(4-methoxyphenyl)but-2-ene-1,4-dione]		10 to 100	100 to 1000	
COc1ccc(C(=O)/C=C/C(=O)N2C[C@@H]3CN(C(=O)C[C@@H]4N=C(c5ccc(Cl)cc5)c5c(sc(C)c5C)-n5c(C)nnc54)[C@@H]3C2)cc1 [Compound 213, (E)-1-((1R,5S)-6-(2-((S)-4-(4-chlorophenyl)-2,3,9-trimethyl-6H-thieno[3,2-f][1,2,4]triazolo[4,3-a][1,4]diazepin-6-yl)acetyl)-3,6-diazabicyclo[3.2.0]heptan-3-yl)-4-(4-methoxyphenyl)but-2-ene-1,4-dione]			100 to 1000	100 to 1000
COc1ccc(C(=O)/C=C/C(=O)N2CCN(C(=O)C[C@@H]3N=C(c4ccc(Cl)cc4)c4c(sc(C)c4C)-n4c(C)nnc43)C[C@@H]2C)cc1 [Compound 214, (E)-1-((S)-4-(2-((S)-4-(4-chlorophenyl)-2,3,9-trimethyl-6H-thieno[3,2-f][1,2,4]triazolo[4,3-a][1,4]diazepin-6-yl)acetyl)-2-methylpiperazin-1-yl)-4-(4-methoxyphenyl)but-2-ene-1,4-dione]	10 to 100	10 to 100		
COc1ccc(C(=O)/C=C/C(=O)N2[C@H](C)CN(C(=O)C[C@@H]3N=C(c4ccc(Cl)cc4)c4c(sc(C)c4C)-n4c(C)nnc43)C[C@@H]2C)cc1 [Compound 215, (E)-1-((2S,6R)-4-(2-((S)-4-(4-chlorophenyl)-2,3,9-trimethyl-6H-thieno[3,2-f][1,2,4]triazolo[4,3-a][1,4]diazepin-6-yl)acetyl)-2,6-dimethylpiperazin-1-yl)-4-(4-methoxyphenyl)but-2-ene-1,4-dione]	< 10	10 to 100		
COc1ccc(C(=O)/C=C/C(=O)N2CCN(C(=O)C[C@@H]3N=C(c4ccc(Cl)cc4)c4c(sc(C)c4C)-n4c(C)nnc43)[C@@H](C)C2)cc1 [Compound 216, (E)-1-((S)-4-(2-((S)-4-(4-chlorophenyl)-2,3,9-trimethyl-6H-thieno[3,2-f][1,2,4]triazolo[4,3-a][1,4]diazepin-6-yl)acetyl)-3-methylpiperazin-1-yl)-4-(4-methoxyphenyl)but-2-ene-1,4-dione]	< 10	< 10		
COc1ccc(C(=O)/C=C/C(=O)N2CCN(C(=O)C[C@@H]3N=C(c4ccc(Cl)cc4)c4c(sc(C)c4C)-n4c(C)nnc43)C[C@H]2C)cc1 [Compound 217, (E)-1-((R)-4-(2-((S)-4-(4-chlorophenyl)-2,3,9-trimethyl-6H-thieno[3,2-f][1,2,4]triazolo[4,3-a][1,4]diazepin-6-yl)acetyl)-2-methylpiperazin-1-yl)-4-(4-methoxyphenyl)but-2-ene-1,4-dione]	< 10	< 10		
COc1ccc(C(=O)/C=C/C(=O)N2CCN(C(=O)C[C@@H]3N=C(c4ccc(Cl)cc4)c4c(sc(C)c4C)-n4c(C)nnc43)[C@H](C)C2)cc1 [Compound 218, (E)-1-((R)-4-(2-((S)-4-(4-chlorophenyl)-2,3,9-trimethyl-6H-thieno[3,2-f][1,2,4]triazolo[4,3-a][1,4]diazepin-6-yl)acetyl)-3-methylpiperazin-1-yl)-4-(4-methoxyphenyl)but-2-ene-1,4-dione]	< 10	< 10		
COc1ccc(C(=O)/C=C/C(=O)N2CCCN(C(=O)C[C@@H]3N=C(c4ccc(Cl)cc4)c4c(sc(C)c4C)-n4c(C)nnc43)CC2)cc1 [Compound 219, (S,E)-1-(4-(2-(4-(4-chlorophenyl)-2,3,9-trimethyl-6H-thieno[3,2-f][1,2,4]triazolo[4,3-a][1,4]diazepin-6-yl)acetyl)-1,4-diazepan-1-yl)-4-(4-methoxyphenyl)but-2-ene-1,4-dione]			100 to 1000	100 to 1000
COc1ccc(C(=O)/C=C/C(=O)N2CCN(C(=O)C[C@@H]3N=C(c4ccc(Cl)cc4)c4c(sc(C)c4C)-n4c(C)nnc43)CC23CC3)cc1 [Compound 221, (S,E)-1-(7-(2-(4-(4-chlorophenyl)-2,3,9-trimethyl-6H-thieno[3,2-f][1,2,4]triazolo[4,3-a][1,4]diazepin-6-yl)acetyl)-4,7-diazaspiro[2.5]octan-4-yl)-4-(4-methoxyphenyl)but-2-ene-1,4-dione]	10 to 100	10 to 100		
COc1ccc(C(=O)/C=C/C(=O)NC2CC(NC(=O)C[C@@H]3N=C(c4ccc(Cl)cc4)c4c(sc(C)c4C)-n4c(C)nnc43)C2)cc1 (some centres unmarked) [Compound 222]	1 to 10	1 to 10		
COc1ccc(C(=O)/C=C/C(=O)N[C@H]2C[C@H](NC(=O)C[C@@H]3N=C(c4ccc(Cl)cc4)c4c(sc(C)c4C)-n4c(C)nnc43)C2)cc1 [Compound 223, (E)-N-((1S,3r)-3-(2-((S)-4-(4-chlorophenyl)-2,3,9-trimethyl-6H-thieno[3,2-f][1,2,4]triazolo[4,3-a][1,4]diazepin-6-yl)acetamido)cyclobutyl)-4-(4-methoxyphenyl)-4-oxobut-2-enamide]	8	12		
COc1ccc(C(=O)/C=C/C(=O)N2CCC3(CCN(C(=O)C[C@@H]4N=C(c5ccc(Cl)cc5)c5c(sc(C)c5C)-n5c(C)nnc54)C3)C2)cc1 (stereo partly drawn) [Compound 224, (E)-1-(7-(2-((S)-4-(4-chlorophenyl)-2,3,9-trimethyl-6H-thieno[3,2-f][1,2,4]triazolo[4,3-a][1,4]diazepin-6-yl)acetyl)-2,7-diazaspiro[4.4]nonan-2-yl)-4-(4-methoxyphenyl)but-2-ene-1,4-dione]	1 to 10	1 to 10		
COc1ccc(C(=O)/C=C/C(=O)N2CC3CCN(C(=O)C[C@@H]4N=C(c5ccc(Cl)cc5)c5c(sc(C)c5C)-n5c(C)nnc54)CC3C2)cc1 (stereo partly drawn) [Compound 225, (E)-1-(5-(2-((S)-4-(4-chlorophenyl)-2,3,9-trimethyl-6H-thieno[3,2-f][1,2,4]triazolo[4,3-a][1,4]diazepin-6-yl)acetyl)octahydro-2H-pyrrolo[3,4-c]pyridin-2-yl)-4-(4-methoxyphenyl)but-2-ene-1,4-dione]	< 10			100 to 1000
COc1ccc(C(=O)/C=C/C(=O)N2CC3CCC2CN3C(=O)C[C@@H]2N=C(c3ccc(Cl)cc3)c3c(sc(C)c3C)-n3c(C)nnc32)cc1 (stereo partly drawn) [Compound 226, (E)-1-(5-(2-((S)-4-(4-chlorophenyl)-2,3,9-trimethyl-6H-thieno[3,2-f][1,2,4]triazolo[4,3-a][1,4]diazepin-6-yl)acetyl)-2,5-diazabicyclo[2.2.2]octan-2-yl)-4-(4-methoxyphenyl)but-2-ene-1,4-dione]	10 to 100	10 to 100		
COc1ccc(C(=O)/C=C/C(=O)N2CC3(CCN(C(=O)C[C@@H]4N=C(c5ccc(Cl)cc5)c5c(sc(C)c5C)-n5c(C)nnc54)CC3)C2)cc1 [Compound 227, (S,E)-1-(7-(2-(4-(4-chlorophenyl)-2,3,9-trimethyl-6H-thieno[3,2-f][1,2,4]triazolo[4,3-a][1,4]diazepin-6-yl)acetyl)-2,7-diazaspiro[3.5]nonan-2-yl)-4-(4-methoxyphenyl)but-2-ene-1,4-dione]	10 to 100	10 to 100		
